Experimental data: patent publication US8329726B2, “Inhibitors of VEGF receptor and HGF receptor signaling” (MethylGene Inc., priority 2005, dated 2012)

Assays:
VEGF receptor KDR = molecular target: T1, VEGF receptor KDR (Homo sapiens, UniProt P35968); experiment: In vitro receptor tyrosine kinase assay (DELFIA), VEGF receptor KDR; assay type: biochemical; details: read-out: VEGFR IC50
T1 construct: made in house; host or cells: Sf9 cells (Spodoptera frugiperda), baculovirus
Protocol: In the case of VEGF receptor KDR a 1.6-kb cDNA corresponding to the catalytic domain of VEGFR2 or KDR (Genbank accession number AF035121 amino acid 806 to 1356) was cloned into the Pst I site of the pDEST20 Gateway vector (Invitrogen) for the production of a GST-tagged version of that enzyme.
The GST-VEGFR2806-1356 protein was expressed in […] (Spodoptera frugiperda) upon infection with recombinant baculovirus construct. […] Cell pellets were frozen at −80° C. until purification was performed.
The supernatant (cell extract) was used as starting material for purification of GST-VEGFR2806-1356.
The supernatant was loaded onto a GST-agarose column (Sigma) equilibrated with PBS pH 7.3. Following a four column volume (CV) wash with PBS pH 7.3+1% Triton X-100 and 4 CV wash with buffer B (50 mM Tris pH 8.0, 20% glycerol and 100 mM NaCl), bound proteins were step eluted with 5 CV of buffer B supplemented with 5 mM DTT and 15 mM glutathion. GST-VEGFR2806-1356 enriched fractions from this chromatography step were pooled based on U.V. trace i.e. fractions with high O.D.280. Final GST-VEGFR2806-1356 protein preparations concentrations were about 0.7 mg/ml with purity approximating 70%.
(§1) The coated plates were washed and stored at 4° C. […] After incubation, the kinase reactions were quenched with EDTA and the plates were washed.

DU145 = DU145 scattering inhibition (HGF dependent scattering); assay type: cell-based; details: Homo sapiens, DU-145; HGF dependent scattering, DU145 cells; read-out: DU145 SCATTERING INHIB IC50
From the text: (§2) HGF has well known activity in terms of inducing scattering and migration (wound healing) (Wells et al., Cell Motil Cytoskeleton. 2005 November 62(3):180-94; Miura et al., Urology 2001 December 58(6):1064-9; Nishimura et al., Int J Urol. 1998 May 5(3):276-81; Wang et al., Mol Cancer Ther. 2003 November; 2(11):1085-92; and Christensen et al., Cancer Res. 2003 Nov. 1; 63(21):7345-55).

A549 = A549 wound healing inhibition (HGF dependent migration); assay type: cell-based; details: Homo sapiens, A549 cells, read-out: A549 WOUND HEALING INHIB IC50
From the text: as §2

[1] = molecular target: T2, recombinant human c-Met/HGF receptor (Homo sapiens, UniProt P08581); experiment: In vitro receptor tyrosine kinase assay (DELFIA), c-Met/HGF receptor; assay type: biochemical; details: read-out: CMET IC50
T2 construct: His tag (pBlueBacHis2A vector); made in house; host or cells: Hi-5 cells (Trichoplusia ni), baculovirus
Protocol: Cell pellets were frozen at −80° C. until purification was performed.
as §1

T1 sequence (P35968 806-1356): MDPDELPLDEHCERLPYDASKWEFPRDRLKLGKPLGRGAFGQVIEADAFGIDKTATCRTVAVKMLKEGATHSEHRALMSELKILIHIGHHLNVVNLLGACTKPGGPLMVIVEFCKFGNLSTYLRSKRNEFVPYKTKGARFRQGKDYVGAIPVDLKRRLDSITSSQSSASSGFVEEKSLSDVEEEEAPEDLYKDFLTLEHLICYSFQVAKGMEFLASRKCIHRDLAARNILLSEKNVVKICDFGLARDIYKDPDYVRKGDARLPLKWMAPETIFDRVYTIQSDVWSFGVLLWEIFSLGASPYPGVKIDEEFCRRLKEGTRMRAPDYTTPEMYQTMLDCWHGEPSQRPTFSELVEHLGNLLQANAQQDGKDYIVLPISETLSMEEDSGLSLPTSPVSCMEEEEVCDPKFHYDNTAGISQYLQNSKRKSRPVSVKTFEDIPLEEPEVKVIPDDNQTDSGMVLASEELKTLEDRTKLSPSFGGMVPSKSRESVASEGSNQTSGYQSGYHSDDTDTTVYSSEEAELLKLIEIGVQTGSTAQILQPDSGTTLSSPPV
T2 sequence (P08581 1078-1337): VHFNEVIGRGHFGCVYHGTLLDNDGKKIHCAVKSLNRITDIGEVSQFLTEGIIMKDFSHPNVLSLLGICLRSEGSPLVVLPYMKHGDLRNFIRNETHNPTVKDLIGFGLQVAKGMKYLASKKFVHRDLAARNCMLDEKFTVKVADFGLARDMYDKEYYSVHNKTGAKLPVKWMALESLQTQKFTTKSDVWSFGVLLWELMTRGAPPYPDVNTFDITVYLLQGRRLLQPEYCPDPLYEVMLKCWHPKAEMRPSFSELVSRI

Structure (SMILES)	IC50 (VEGF receptor KDR) [nM]	IC50 (DU145) [nM]	IC50 (A549) [nM]	IC50 [1] [nM]
CCn1cnc(-c2cc3nccc(Oc4ccc(NC(=O)CC(Nc5ccccc5)C(F)(F)F)cc4F)c3s2)c1 (centres unmarked)	50 to 250	1000 to 5000	1000 to 5000	50 to 250
O=C(Nc1ccc(Nc2ccnc3cc(-c4cn(CCN5CCCC5)cn4)sc23)c(F)c1)N1CCN(c2ccccc2)C1=O	250 to 500	> 10000	> 10000	< 50
CN(C)Cc1cccc(-c2cc3nccc(Oc4ccc(NC(=O)CC(=O)Nc5ccccc5F)cc4F)c3s2)c1 [drawing 316]	50 to 250	< 1000	1000 to 5000	< 50
CN(c1ccc(NC(=O)C2CCN(c3ccccc3)C2=O)cc1F)c1ccnc2cc(-c3cn(C)cn3)sc12 (centres unmarked)	> 500	1000 to 5000	1000 to 5000	50 to 250
CCN(CC)CCn1cnc(-c2cc3nccc(Oc4ccc(NC(=O)CC(=O)N(C)c5ccccc5)cc4F)c3s2)c1	< 50	< 1000	< 1000	50 to 250
Cn1ccnc1-c1cc2nccc(Sc3ccc(NC(=O)N4CCN(c5ccccc5)C4=O)cc3)c2s1	50 to 250	< 1000	< 1000	< 50
COc1ccccc1NC(=O)CC(=O)Nc1ccc(Oc2ccnc3cc(C4=CCCN(C)C4)sc23)c(F)c1	250 to 500	1000 to 5000	1000 to 5000	50 to 250
O=C(Nc1ccc(Oc2ccnc3cc(-c4cn(CCN5CCCC5)cn4)sc23)c(F)c1)C1(C(=O)Nc2ccccc2F)CC1	< 50	< 1000	1000 to 5000	< 50
CN(C(=O)CC(=O)Nc1ccc(Oc2ccnc3cc(-c4cn(C)cn4)sc23)c(F)c1)c1ccccc1F	< 50	1000 to 5000	< 1000	50 to 250
Cn1cnc(-c2cc3nccc(Oc4ccc(NC(=O)C5(C(=O)Nc6ccccc6)CC5)cc4F)c3s2)c1	< 50	< 1000	< 1000	< 50
CCn1cnc(-c2cc3nccc(Oc4ccc(NC(=O)CC(=O)N5CCOc6ccccc65)cc4F)c3s2)c1	< 50	< 1000	< 1000	< 50
CN(C)CC#Cc1cc2nccc(Oc3ccc(NC(=O)CC(=O)Nc4ccccc4F)cc3F)c2s1	50 to 250	1000 to 5000	> 10000	50 to 250
O=C(Nc1ccc(Oc2ccnc3cc(-c4cn(CCCN5CCCC5)cn4)sc23)c(F)c1)C1CCN(c2ccccc2)C1=O (centres unmarked)	< 50	< 1000	< 1000	< 50
CCn1cnc(-c2cc3nccc(Oc4ccc(NC(=O)CC(Nc5ccc(F)cc5)C(F)(F)F)cc4F)c3s2)c1 (centres unmarked)	50 to 250	1000 to 5000	> 10000	250 to 500
CCn1cncc1-c1cc2nccc(Oc3ccc(NC(=O)CC(=O)Nc4ccccc4F)cc3F)c2s1	50 to 250	1000 to 5000	1000 to 5000	50 to 250
Cn1cnc(-c2cc3nccc(Oc4ccc(NC(=O)N5CCN(c6ccccc6)C5=S)cc4F)c3s2)c1	> 500	> 10000	> 10000	> 500
CCn1cnc(-c2cc3nccc(Oc4ccc(NC(=O)N5CCN(c6ccccc6OC)C5=O)cc4F)c3s2)c1	< 50	< 1000	1000 to 5000	< 50
Cn1ccnc1-c1cc2nccc(Oc3ccc(NC(=O)CC(=O)NC4CCNCC4)cc3F)c2s1	> 500	> 10000	> 10000	> 500
CN(C)CCCN(C)Cc1ccc(-c2cc3nccc(Oc4ccc(NC(=O)CC(=O)N(C)c5ccccc5)cc4F)c3s2)cc1	< 50	< 1000	< 1000	< 50
COc1ccccc1NC(=O)CC(=O)Nc1ccc(Oc2ccnc3cc(-c4cn(C(C)C)cn4)sc23)c(F)c1	< 50	< 1000	< 1000	< 50
COCCNCc1ccc(-c2cc3nccc(Oc4ccc(NC(=O)N5CCN(c6ccccc6)C5=O)cc4F)c3s2)cc1	< 50	< 1000	< 1000	< 50
CN(c1ccc(NC(=O)C2(C(=O)Nc3ccccc3)CC2)cc1F)c1ccnc2ccsc12	> 500	1000 to 5000	1000 to 5000	250 to 500
CCCn1cnc(-c2cc3nccc(Oc4ccc(NC(=O)CC(=O)Nc5ccc(F)cc5)cc4F)c3s2)c1	< 50	< 1000	< 1000	< 50
CNCCn1cnc(-c2cc3nccc(Oc4ccc(NC(=O)CC(=O)Nc5ccccc5OC)cc4F)c3s2)c1	< 50	1000 to 5000	1000 to 5000	50 to 250
Cn1cnc(-c2cc3nccc(Oc4ccc(NC(CC(=O)Nc5ccc(F)cc5)C(F)(F)F)cc4F)c3s2)c1 (centres unmarked)	< 50	< 1000	< 1000	50 to 250
O=C(Nc1ccc(Oc2ccnc3cc(-c4cn(CCCN5CCCC5)cn4)sc23)c(F)c1)N1CCN(c2ccc(F)cc2)C1=O	< 50	< 1000	< 1000	< 50
CN(C)Cc1ccc(-c2cc3nccc(Oc4ccc(NC(=O)N5CCN(c6ccc(F)cc6)C5=O)cc4F)c3s2)nc1	< 50	< 1000	< 1000	< 50
COc1ccccc1NC(=O)CC(=O)Nc1ccc(Oc2ccnc3cc(-c4cn(C)cn4)sc23)c(F)c1	< 50	< 1000	< 1000	50 to 250

More lines, now with the values ahead:

IC50 (VEGF receptor KDR) [nM]	IC50 (DU145) [nM]	IC50 (A549) [nM]	IC50 [1] [nM]	Structure (SMILES)
< 50	< 1000	< 1000	50 to 250	COc1ccccc1NC(=O)CC(=O)Nc1ccc(Oc2ccnc3cc(-c4cn(CCN(C)C)cn4)sc23)c(F)c1
< 50	< 1000	1000 to 5000	< 50	CN1CCN(CCN(C)Cc2ccc(-c3cc4nccc(Oc5ccc(NC(=O)CC(=O)N(C)c6ccc(F)cc6)cc5F)c4s3)cc2)CC1
< 50	< 1000	< 1000	< 50	CN(C)CCn1cnc(-c2cc3nccc(Oc4ccc(NC(=O)C5(C(=O)Nc6ccccc6)CC5)cc4F)c3s2)c1
< 50	< 1000	< 1000	< 50	CN(C)CCn1cnc(-c2cc3nccc(Oc4ccc(NC(=O)CC(=O)N(C)c5ccccc5)cc4F)c3s2)c1
< 50	< 1000	< 1000	< 50	CCn1cnc(-c2cc3nccc(Oc4ccc(NC(=O)CC(=O)Nc5ccccc5F)cc4F)c3s2)c1 [drawing 293]
< 50	1000 to 5000	1000 to 5000	50 to 250	CC(C(=O)Nc1ccccc1)C(=O)Nc1ccc(Oc2ccnc3cc(-c4nccn4C)sc23)c(F)c1 (centres unmarked) [drawing 286]
< 50	< 1000	1000 to 5000	50 to 250	CN(C)[C@H]1CCN(Cc2ccc(-c3cc4nccc(Oc5ccc(NC(=O)CC(=O)Nc6ccccc6)cc5F)c4s3)cc2)C1
< 50	< 1000	< 1000	50 to 250	Cn1ccnc1-c1cc2nccc(Oc3ccc(NC(=S)N4CCN(c5ccc(F)cc5)C4=O)cc3F)c2s1
< 50	> 10000	> 10000	250 to 500	CCn1cnc(-c2cc3nccc(Oc4ccc(NC(=O)C5(C(=O)N(C)c6ccc(F)cc6)CC5)cc4F)c3s2)c1
< 50	< 1000	< 1000	< 50	CN1CCN(Cc2ccc(-c3cc4nccc(Oc5ccc(NC(=O)N6CCN(c7ccccc7)C6=O)cc5F)c4s3)cc2)CC1
< 50	< 1000	< 1000	< 50	O=C(CC(=O)Nc1ccc(Oc2ccnc3cc(-c4cn(CCO)cn4)sc23)c(F)c1)Nc1ccccc1
< 50	< 1000	< 1000	< 50	COCCn1cnc(-c2cc3nccc(Oc4ccc(NC(=O)CC(=O)Nc5ccccc5)cc4F)c3s2)c1
< 50	< 1000	< 1000	< 50	CC(C)n1cnc(-c2cc3nccc(Oc4ccc(NC(=O)C5CCN(c6ccccc6)C5=O)cc4F)c3s2)c1 (centres unmarked)
